Measurements: ChEMBL document CHEMBL1240342, “Molecular modeling studies of vascular endothelial growth factor receptor tyrosine kinase inhibitors using QSAR and docking” (J Mol Graph Model, 2009)

Each compound was assayed against Vascular endothelial growth factor receptor 2 (Homo sapiens, UniProt P35968) (assay: Inhibition of human VEGFR2 after 60 mins).
Vascular endothelial growth factor receptor 2, sequence (P35968 whole entry): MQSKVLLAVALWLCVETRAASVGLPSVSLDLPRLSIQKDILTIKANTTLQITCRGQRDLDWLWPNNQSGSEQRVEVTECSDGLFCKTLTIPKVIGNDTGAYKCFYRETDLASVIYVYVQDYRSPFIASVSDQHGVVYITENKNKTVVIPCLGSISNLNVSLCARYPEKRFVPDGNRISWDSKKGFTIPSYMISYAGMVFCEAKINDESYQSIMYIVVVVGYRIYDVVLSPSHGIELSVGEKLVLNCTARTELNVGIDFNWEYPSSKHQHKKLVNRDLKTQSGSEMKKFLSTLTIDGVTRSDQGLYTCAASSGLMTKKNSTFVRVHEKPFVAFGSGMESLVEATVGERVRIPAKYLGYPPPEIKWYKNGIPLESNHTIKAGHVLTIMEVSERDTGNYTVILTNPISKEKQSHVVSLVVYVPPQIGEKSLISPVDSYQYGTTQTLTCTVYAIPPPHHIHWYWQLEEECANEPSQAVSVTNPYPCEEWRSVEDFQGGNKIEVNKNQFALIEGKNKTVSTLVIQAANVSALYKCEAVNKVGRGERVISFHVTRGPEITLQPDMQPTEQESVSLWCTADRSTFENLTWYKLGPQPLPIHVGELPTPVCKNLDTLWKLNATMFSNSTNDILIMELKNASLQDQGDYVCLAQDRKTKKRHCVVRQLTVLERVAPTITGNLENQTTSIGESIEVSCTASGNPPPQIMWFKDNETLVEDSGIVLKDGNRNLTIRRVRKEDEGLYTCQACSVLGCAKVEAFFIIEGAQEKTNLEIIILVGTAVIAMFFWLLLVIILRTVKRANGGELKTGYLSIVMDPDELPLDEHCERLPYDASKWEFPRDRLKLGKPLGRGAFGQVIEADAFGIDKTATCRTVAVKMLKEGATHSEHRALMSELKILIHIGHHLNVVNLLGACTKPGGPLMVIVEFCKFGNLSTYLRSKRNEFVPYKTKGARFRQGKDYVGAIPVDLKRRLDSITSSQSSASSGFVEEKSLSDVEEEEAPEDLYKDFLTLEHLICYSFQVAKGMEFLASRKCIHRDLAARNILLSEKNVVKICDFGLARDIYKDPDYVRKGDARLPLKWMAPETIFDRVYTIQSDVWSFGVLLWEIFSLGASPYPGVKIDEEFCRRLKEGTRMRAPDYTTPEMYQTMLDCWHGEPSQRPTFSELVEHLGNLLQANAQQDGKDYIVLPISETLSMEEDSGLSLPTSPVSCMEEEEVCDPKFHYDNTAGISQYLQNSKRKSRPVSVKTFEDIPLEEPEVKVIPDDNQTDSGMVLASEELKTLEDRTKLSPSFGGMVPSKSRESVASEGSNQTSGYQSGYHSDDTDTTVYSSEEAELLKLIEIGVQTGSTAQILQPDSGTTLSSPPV

Row | Structure (SMILES) | IC50 [nM]
1 | COCCNC(=O)c1cccc2cc(Oc3ccnc4cc(OC)c(C(C)=O)cc34)ccc12 | 21.9
2 | COc1cc2nccc(Oc3ccc4c(c3)OCCN4C(=O)Nc3ccc(Cl)cc3)c2cc1C(C)=O | 0.603
3 | COc1cc2nccc(Oc3ccc4c(C(=O)NCC(F)F)cccc4c3)c2cc1OC | 3.8
4 | COc1cc2nccc(Oc3ccc4c(C(=O)NC5CCC5)cccc4c3)c2cc1OC | 2.14
5 | COc1cc2nccc(Oc3ccc4c(C(=O)NC5CCCC5)cccc4c3)c2cc1OC | 12

Continued, values first:

Row | IC50 [nM] | Structure (SMILES)
6 | 1.2 | COc1cc2nccc(Oc3ccc4c(C(N)=O)cccc4c3)c2cc1C(C)=O
7 | 0.372 | COc1cc2nccc(Oc3ccc4c(C(=O)NC5CC5)cccc4c3)c2cc1C(C)=O
8 | 0.2 | COc1cc2nccc(Oc3ccc4c(C(=O)Nc5ccc(Cl)cc5)cccc4c3)c2cc1C(C)=O
9 | 0.501 | COc1cc2nccc(Oc3ccc4c(c3)OCCN4C(=O)Nc3ccc(C)cc3)c2cc1C(C)=O
10 | 5.5 | COc1cc2nccc(Oc3ccc4c(C(=O)NC(C)C)cccc4c3)c2cc1OC
